# Organism: Rattus norvegicus
# Assay: DrugMatrix - Regimen: Daily Repeat
# Format: toxicity, organism-based, Sprague-Dawley
# Design: regimen Daily Repeat, gender Male, age 6-8 weeks
# Conditions: in vivo, po, route oral GAVAGE, vehicle .5 % CMC; for ABSOLUTE BASOPHIL / ABSOLUTE EOSINOPHIL / ABSOLUTE LYMPHOCYTE / ABSOLUTE MONOCYTE / ABSOLUTE SEGMENTED NEUTROPHIL / BASOPHIL / EOSINOPHIL / ERYTHROCYTE COUNT / HEMATOCRIT / HEMOGLOBIN / LEUKOCYTE COUNT / LYMPHOCYTE / MEAN CORPUSCULAR HEMOGLOBIN / MEAN CORPUSCULAR HEMOGLOBIN CONCENTRATION / MEAN CORPUSCULAR VOLUME / MONOCYTE / NEUTROPHIL / NUCLEATED RED BLOOD CELLS / PLATELET COUNT: tissue Blood; for ALANINE AMINOTRANSFERASE / ALBUMIN / ALKALINE PHOSPHATASE / ASPARTATE AMINOTRANSFERASE / BLOOD UREA NITROGEN / CARBON DIOXIDE / CHLORIDE / CHOLESTEROL / CREATINE PHOSPHOKINASE / CREATININE / GLUCOSE / LACTATE DEHYDROGENASE / LIPASE / PHOSPHORUS / POTASSIUM / SODIUM / TOTAL BILIRUBIN / TOTAL PROTEIN / URIC ACID: tissue Plasma
# [1] = 3 mg/kg, 120 h, dose level Low, time 5 day
# [2] = 17 mg/kg, 72 h, dose level High, time 3 day
# [3] = 17 mg/kg, 120 h, dose level High, time 5 day
structure (smiles),measurement,setting,value
COc1nc(C)nc(Cl)c1N=C1NCCN1 [MOXONIDINE],ABSOLUTE BASOPHIL,[1],0 CELLS/uL
same,ABSOLUTE EOSINOPHIL,[1],0 CELLS/uL
same,ABSOLUTE LYMPHOCYTE,[1],12936.33 CELLS/uL
same,ABSOLUTE MONOCYTE,[1],47.33 CELLS/uL
same,ABSOLUTE SEGMENTED NEUTROPHIL,[1],1849.67 CELLS/uL
same,BASOPHIL,[1],0%
same,EOSINOPHIL,[1],0%
same,ERYTHROCYTE COUNT,[1],5.72 x10E6/uL
same,HEMATOCRIT,[1],36.07%
same,HEMOGLOBIN,[1],14.37 G/DL
same,LEUKOCYTE COUNT,[1],14.83 x10E3/uL
same,LYMPHOCYTE,[1],87%
same,MEAN CORPUSCULAR HEMOGLOBIN,[1],25.13 pg
same,MEAN CORPUSCULAR HEMOGLOBIN CONCENTRATION,[1],39.8 G/DL
same,MEAN CORPUSCULAR VOLUME,[1],63.1 fL
same,MONOCYTE,[1],0.33%
same,NEUTROPHIL,[1],12.67%
same,NUCLEATED RED BLOOD CELLS,[1],0.33 /100WBC
same,PLATELET COUNT,[1],943.67 x10E3/uL
same,ALANINE AMINOTRANSFERASE,[1],44.67 u/L
same,ALBUMIN,[1],4.13 G/DL
same,ALKALINE PHOSPHATASE,[1],346 u/L
same,ASPARTATE AMINOTRANSFERASE,[1],83.67 u/L
same,BLOOD UREA NITROGEN,[1],17.67 mg/dL
same,CARBON DIOXIDE,[1],29.33 mmol/L
same,CHLORIDE,[1],98 MEQ/L
same,CHOLESTEROL,[1],69.67 mg/dL
same,CREATINE PHOSPHOKINASE,[1],484.67 u/L
same,CREATININE,[1],0.19 mg/dL
same,GLUCOSE,[1],147 mg/dL
same,LACTATE DEHYDROGENASE,[1],166.67 u/L
same,LIPASE,[1],10 u/L
same,PHOSPHORUS,[1],13.4 mg/dL
same,POTASSIUM,[1],6.24 MEQ/L
same,SODIUM,[1],145.27 MEQ/L
same,TOTAL BILIRUBIN,[1],0.2 mg/dL
same,TOTAL PROTEIN,[1],6.03 G/DL
same,URIC ACID,[1],1.57 mg/dL
same,ABSOLUTE BASOPHIL,[2],0 CELLS/uL
same,ABSOLUTE EOSINOPHIL,[2],110.67 CELLS/uL
same,ABSOLUTE LYMPHOCYTE,[2],13070 CELLS/uL
same,ABSOLUTE MONOCYTE,[2],298.67 CELLS/uL
same,ABSOLUTE SEGMENTED NEUTROPHIL,[2],1454 CELLS/uL
same,BASOPHIL,[2],0%
same,EOSINOPHIL,[2],0.67%
same,ERYTHROCYTE COUNT,[2],6.02 x10E6/uL
same,HEMATOCRIT,[2],36.53%
same,HEMOGLOBIN,[2],14.5 G/DL
same,LEUKOCYTE COUNT,[2],14.93 x10E3/uL
same,LYMPHOCYTE,[2],87.33%
same,MEAN CORPUSCULAR HEMOGLOBIN,[2],24.07 pg
same,MEAN CORPUSCULAR HEMOGLOBIN CONCENTRATION,[2],39.67 G/DL
same,MEAN CORPUSCULAR VOLUME,[2],60.63 fL
same,MONOCYTE,[2],2%
same,NEUTROPHIL,[2],10%
same,NUCLEATED RED BLOOD CELLS,[2],0 /100WBC
same,PLATELET COUNT,[2],1171.33 x10E3/uL
same,ALANINE AMINOTRANSFERASE,[2],46.67 u/L
same,ALBUMIN,[2],3.9 G/DL
same,ALKALINE PHOSPHATASE,[2],274 u/L
same,ASPARTATE AMINOTRANSFERASE,[2],131.67 u/L
same,BLOOD UREA NITROGEN,[2],17.67 mg/dL
same,CARBON DIOXIDE,[2],23.67 mmol/L
same,CHLORIDE,[2],104 MEQ/L
same,CHOLESTEROL,[2],63 mg/dL
same,CREATINE PHOSPHOKINASE,[2],1708.67 u/L
same,CREATININE,[2],0.17 mg/dL
same,GLUCOSE,[2],146 mg/dL
same,LACTATE DEHYDROGENASE,[2],536.33 u/L
same,LIPASE,[2],8.67 u/L
same,PHOSPHORUS,[2],9.2 mg/dL
same,POTASSIUM,[2],5.68 MEQ/L
same,SODIUM,[2],142.1 MEQ/L
same,TOTAL BILIRUBIN,[2],0.17 mg/dL
same,TOTAL PROTEIN,[2],5.43 G/DL
same,URIC ACID,[2],1.53 mg/dL
same,ABSOLUTE BASOPHIL,[3],0 CELLS/uL
same,ABSOLUTE EOSINOPHIL,[3],74 CELLS/uL
same,ABSOLUTE LYMPHOCYTE,[3],15545.33 CELLS/uL
same,ABSOLUTE MONOCYTE,[3],52.33 CELLS/uL
same,ABSOLUTE SEGMENTED NEUTROPHIL,[3],1961.67 CELLS/uL
same,BASOPHIL,[3],0%
same,EOSINOPHIL,[3],0.33%
same,ERYTHROCYTE COUNT,[3],5.87 x10E6/uL
same,HEMATOCRIT,[3],34.5%
same,HEMOGLOBIN,[3],13.8 G/DL
same,LEUKOCYTE COUNT,[3],17.63 x10E3/uL
same,LYMPHOCYTE,[3],88.67%
same,MEAN CORPUSCULAR HEMOGLOBIN,[3],23.5 pg
same,MEAN CORPUSCULAR HEMOGLOBIN CONCENTRATION,[3],40 G/DL
same,MEAN CORPUSCULAR VOLUME,[3],58.73 fL
same,MONOCYTE,[3],0.33%
same,NEUTROPHIL,[3],10.67%
same,NUCLEATED RED BLOOD CELLS,[3],0.33 /100WBC
same,PLATELET COUNT,[3],1240.33 x10E3/uL
same,ALANINE AMINOTRANSFERASE,[3],48 u/L
same,ALBUMIN,[3],3.97 G/DL
same,ALKALINE PHOSPHATASE,[3],270.33 u/L
same,ASPARTATE AMINOTRANSFERASE,[3],91.33 u/L
same,BLOOD UREA NITROGEN,[3],23 mg/dL
same,CARBON DIOXIDE,[3],25 mmol/L
same,CHLORIDE,[3],104.67 MEQ/L
same,CHOLESTEROL,[3],70.33 mg/dL
same,CREATINE PHOSPHOKINASE,[3],333.33 u/L
same,CREATININE,[3],0.21 mg/dL
same,GLUCOSE,[3],128 mg/dL
same,LACTATE DEHYDROGENASE,[3],169 u/L
same,LIPASE,[3],9.67 u/L
same,PHOSPHORUS,[3],10.3 mg/dL
same,POTASSIUM,[3],5.89 MEQ/L
same,SODIUM,[3],144.27 MEQ/L
same,TOTAL BILIRUBIN,[3],0.17 mg/dL
same,TOTAL PROTEIN,[3],5.67 G/DL
same,URIC ACID,[3],1.43 mg/dL
